{"source": "paper PMC7948422", "about": "“Repurposing p97 inhibitors for chemical modulation of the bacterial ClpB–DnaK bichaperone system” (The Journal of Biological Chemistry, 2020)", "key": {"E. coli dnaK103": {"system": "E. coli dnaK103", "experiment": "Bacterial viability, dnaK103", "type": "cell-based, Escherichia coli", "details": "45 °C", "protocol": "E. coli MC4100, MC4100ΔclpB, dnaK103, and dnaK756 strains were used to determine an influence of DBeQ on bacterial growth and viability. Bacteria were maintained in the LB media, and in the case of the MC4100ΔclpB strain, LB was supplemented with 30 μg/ml kanamycin. All experiments were initiated by preparing overnight cultures inoculated from single colonies and grown at 37 °C. The dnaK103 and dnaK756 overnight cultures were grown at 30 °C. On the following day, the cultures were diluted 100-fold in 10 ml of LB without antibiotics and incubated at 37 °C. The culture optical density was monitored at 600 nm. When absorbance at 600 nm reached 0.4, the culture was divided into 1-ml aliquots and supplemented with 10 μl of DMSO or different concentrations of DBeQ in DMSO. The samples were immediately transferred into an incubator/shaker at temperature 37, 45, or 50 °C. Bacteria were cultured for up to 4 h with shaking (200 RPM). At specific time points, 100 μl of each culture was withdrawn and serially diluted in sterile 0.9% NaCl up to 10^6-fold dilution. To estimate the number of viable cells, 5 μl or 10 μl of the diluted cultures was spread on the LB-agar plate without an antibiotic. […] On the following day, the bacterial colonies were counted and the colony-forming units/ml were calculated."}, "DnaK–DnaJ–GrpE (KJE)": {"target": "T1, DnaK–DnaJ–GrpE (KJE) (Escherichia coli, UniProt P0A6Y8)", "T1 construct": "full-length E. coli DnaK (residues 1–638); made in house; host or cells: E. coli BL21(DE3) for DnaK", "T1 sequence (P0A6Y8 whole entry, the tested form may be a part)": "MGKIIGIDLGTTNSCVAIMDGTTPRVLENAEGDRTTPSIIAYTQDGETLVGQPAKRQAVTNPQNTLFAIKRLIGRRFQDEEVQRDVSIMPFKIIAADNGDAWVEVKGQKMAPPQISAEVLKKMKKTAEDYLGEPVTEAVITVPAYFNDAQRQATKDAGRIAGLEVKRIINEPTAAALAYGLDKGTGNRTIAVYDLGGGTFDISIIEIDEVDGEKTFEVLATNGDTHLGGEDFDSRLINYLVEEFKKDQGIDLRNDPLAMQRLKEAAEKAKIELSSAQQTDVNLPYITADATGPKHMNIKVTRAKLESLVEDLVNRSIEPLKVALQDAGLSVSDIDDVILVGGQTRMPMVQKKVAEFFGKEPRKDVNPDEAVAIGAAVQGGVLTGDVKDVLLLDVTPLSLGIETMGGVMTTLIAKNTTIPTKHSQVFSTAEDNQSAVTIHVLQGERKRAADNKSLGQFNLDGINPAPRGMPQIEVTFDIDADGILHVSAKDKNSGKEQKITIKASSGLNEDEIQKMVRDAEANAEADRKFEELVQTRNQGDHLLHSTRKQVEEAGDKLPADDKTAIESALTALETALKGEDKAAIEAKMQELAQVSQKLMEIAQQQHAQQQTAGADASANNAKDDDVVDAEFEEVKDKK", "experiment": "Aggregate reactivation assay with KJE alone", "type": "biochemical", "protocol": "G6PDH was chemically denatured by mixing 5 μl of the G6PDH stock solution (441 μM) with 5 μl of buffer A (10 M urea, 16% glycerol, 40-mM DTT) preheated at 47 °C. The samples of G6PDH in buffer A were incubated for 5 min at 47 °C. Subsequently, 5 μl of denatured G6PDH was mixed with 95 μl of buffer B (50-mM Tris-HCl, pH 7.4, 20-mM Mg(OAc)2, 30-mM KCl, 1-mM EDTA, 1-mM β-mercaptoethanol) preheated at 47 °C to initiate protein refolding, which, under these conditions, is inefficient and leads to misfolding and aggregation of G6PDH ([69]). G6PDH aggregate production was arrested after 1 min (for refolding by KJE) or 15 min (for refolding by KJE with ClpB) by transferring into ice for 2 min. […] The plate was inserted into Synergy H1 plate reader (BioTek, Winooski, VT) with the chamber temperature at 30 °C, and the sample absorbance at 340 nm was measured after 10 min. The amount of NADPH produced was calculated based on the NADPH molar extinction coefficient, Ɛ340 = 6220 [M^−1 ⋅ cm^−1].\n(§1) Firefly luciferase (220 μM) was diluted 300-fold in PBS buffer with 1 mg/ml bovine serum albumin and then incubated for 12 min at 45 °C. […] Luminescence was measured using Synergy H1 plate reader (BioTek, Winooski, VT)."}, "[1]": {"experiment": "Solubility of DBeQ in aqueous buffer (absorbance/turbidity)", "type": "physicochemical", "details": "aqueous ATPase assay buffer, 1% DMSO", "protocol": "Supplementary Figure 3. Solubility of DBeQ in aqueous solution. Solutions of DBeQ\nwere prepared in the ATPase assay buffer containing 1% DMSO. (A) DBeQ absorbance at\n320 nm (blue) and solution turbidity at 400 nm (red) for increasing DBeQ concentrations. (B)\nUV absorption spectrum of 100 μM DBeQ.\nSupplementary Figure 4. The ATP-binding modules (D1 and D2) separated with the\nmiddle domain (MD) in E. coli ClpB (PDB entry: 5OG1). Trp462 (red), Trp543 (magenta),\nand the ATP-analog, ATPγS (dark blue) bound in D1 and D2 are shown with a “stick”\nrepresentation. Image generated using PyMOL 1.3 (Schrödinger LLC, www.pymol.com). […]"}, "firefly luciferase": {"target": "firefly luciferase (Photinus pyralis, UniProt P08659)", "sequence (P08659 whole entry)": "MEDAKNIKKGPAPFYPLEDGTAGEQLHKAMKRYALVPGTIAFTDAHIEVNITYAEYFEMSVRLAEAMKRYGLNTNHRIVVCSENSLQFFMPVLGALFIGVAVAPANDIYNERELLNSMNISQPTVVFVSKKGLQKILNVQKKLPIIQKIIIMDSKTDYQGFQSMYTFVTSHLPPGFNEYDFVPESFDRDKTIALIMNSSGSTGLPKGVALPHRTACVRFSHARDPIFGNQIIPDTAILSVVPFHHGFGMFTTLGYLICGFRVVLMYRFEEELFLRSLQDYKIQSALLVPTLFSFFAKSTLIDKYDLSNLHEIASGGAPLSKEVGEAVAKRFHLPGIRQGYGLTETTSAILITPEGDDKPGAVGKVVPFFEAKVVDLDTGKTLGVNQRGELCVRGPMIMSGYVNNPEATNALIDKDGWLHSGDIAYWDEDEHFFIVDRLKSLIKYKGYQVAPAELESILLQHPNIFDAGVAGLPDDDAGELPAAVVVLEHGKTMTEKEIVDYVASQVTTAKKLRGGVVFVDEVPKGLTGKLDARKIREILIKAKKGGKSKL", "experiment": "Native firefly luciferase activity", "type": "biochemical", "details": "100 µM compound"}, "[2]": {"target": "T2, ClpB–DnaK bichaperone system (DnaK–DnaJ–GrpE + ClpB) (Escherichia coli, UniProt P0A6Y8+P63284)", "T2 construct": "full-length E. coli DnaK (residues 1–638); made in house; host or cells: E. coli BL21(DE3) for DnaK", "T2 sequence (P63284 whole entry, the tested form may be a part)": "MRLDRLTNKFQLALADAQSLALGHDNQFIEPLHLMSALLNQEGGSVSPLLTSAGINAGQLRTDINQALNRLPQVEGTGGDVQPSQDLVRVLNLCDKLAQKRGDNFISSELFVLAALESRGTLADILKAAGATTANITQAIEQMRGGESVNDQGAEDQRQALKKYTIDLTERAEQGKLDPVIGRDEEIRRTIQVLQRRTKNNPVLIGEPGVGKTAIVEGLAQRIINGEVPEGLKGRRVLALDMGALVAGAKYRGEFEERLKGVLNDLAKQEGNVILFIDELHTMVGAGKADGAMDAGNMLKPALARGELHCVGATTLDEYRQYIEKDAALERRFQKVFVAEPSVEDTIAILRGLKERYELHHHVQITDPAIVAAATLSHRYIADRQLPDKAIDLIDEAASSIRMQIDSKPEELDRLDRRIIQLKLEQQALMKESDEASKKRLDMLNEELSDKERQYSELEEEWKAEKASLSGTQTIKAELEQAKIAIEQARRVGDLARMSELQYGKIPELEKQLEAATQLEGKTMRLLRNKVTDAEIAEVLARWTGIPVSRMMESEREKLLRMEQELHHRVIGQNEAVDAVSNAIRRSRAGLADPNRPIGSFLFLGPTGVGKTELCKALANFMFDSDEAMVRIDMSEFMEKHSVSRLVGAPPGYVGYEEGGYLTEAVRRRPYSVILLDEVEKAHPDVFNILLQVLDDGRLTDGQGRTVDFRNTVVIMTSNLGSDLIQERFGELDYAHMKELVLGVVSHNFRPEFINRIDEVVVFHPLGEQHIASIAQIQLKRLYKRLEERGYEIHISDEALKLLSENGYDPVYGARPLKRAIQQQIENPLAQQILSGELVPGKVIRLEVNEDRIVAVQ", "T2 sequence (P0A6Y8 whole entry, the tested form may be a part)": "as the sequence (P0A6Y8 whole entry, the tested form may be a part) above", "experiment": "Aggregate reactivation assay with KJE + ClpB", "type": "biochemical", "protocol": "G6PDH was chemically denatured by mixing 5 μl of the G6PDH stock solution (441 μM) with 5 μl of buffer A (10 M urea, 16% glycerol, 40-mM DTT) preheated at 47 °C. The samples of G6PDH in buffer A were incubated for 5 min at 47 °C. Subsequently, 5 μl of denatured G6PDH was mixed with 95 μl of buffer B (50-mM Tris-HCl, pH 7.4, 20-mM Mg(OAc)2, 30-mM KCl, 1-mM EDTA, 1-mM β-mercaptoethanol) preheated at 47 °C to initiate protein refolding, which, under these conditions, is inefficient and leads to misfolding and aggregation of G6PDH ([69]). G6PDH aggregate production was arrested after 1 min (for refolding by KJE) or 15 min (for refolding by KJE with ClpB) by transferring into ice for 2 min. To observe the aggregate reactivation, aggregated G6PDH was diluted 10-fold in buffer C (50-mM Tris-HCl, pH 7.4, 20-mM MgCl2, 1-mM EDTA, 0.5-mM TCEP) containing the chaperones KJE (5.5-μM DnaK, 1.1-μM DnaJ, 1.1-μM GrpE) or KJE-ClpB (5.5-μM DnaK, 1.1-μM DnaJ, 1.1-μM GrpE, 1.65-μM ClpB (hexamer)). G6PDH in buffer C without chaperones was used as a control for a spontaneous aggregate reactivation. The chaperone-G6PDH samples (18 μl) were supplemented with 1 μl of DBeQ in DMSO or pure DMSO as a control. The samples were incubated for 2 min at 30 °C. The aggregate reactivation was initiated by adding 1 μl of 100-mM ATP, followed by incubation for 60 min at 30 °C. […] The plate was inserted into Synergy H1 plate reader (BioTek, Winooski, VT) with the chamber temperature at 30 °C, and the sample absorbance at 340 nm was measured after 10 min. The amount of NADPH produced was calculated based on the NADPH molar extinction coefficient, Ɛ340 = 6220 [M^−1 ⋅ cm^−1].\nas §1"}}}
{"smiles": "c1ccc(CNc2nc(NCc3ccccc3)c3ccccc3n2)cc1", "note": "[DBeQ, N^2,N^4-dibenzylquinazoline-2,4-diamine]", "values": [{"measurement": "effect on viability of dnaK103", "setting": "E. coli dnaK103", "value": "suppressed viability"}, {"measurement": "inhibition of DnaK chaperone activity in vitro", "setting": "DnaK–DnaJ–GrpE (KJE)", "value": "inhibited"}, {"measurement": "inhibition of ClpB-independent reactivation of aggregated luciferase", "setting": "DnaK–DnaJ–GrpE (KJE); KJE alone, 20 min, 25 °C", "value": "inhibited"}, {"measurement": "DBeQ concentrations obeying Beer–Lambert law without significant turbidity increase", "setting": "[1]", "value": "up to 100 μM"}, {"measurement": "effect on native luciferase activity", "setting": "firefly luciferase", "value": "not affected"}, {"measurement": "IC50", "setting": "[2]", "value": "~5", "unit": "µM"}, {"measurement": "inhibition of ClpB-dependent reactivation of aggregated luciferase", "setting": "[2]; KJE + ClpB, 20 min, 25 °C", "value": "inhibited"}, {"measurement": "inhibition of ClpB-dependent reactivation of aggregated G6PDH", "setting": "[2]; KJE + ClpB, 60 min, 30 °C, compared with KJE alone", "value": "inhibited by DBeQ with a several-fold lower IC50 than ClpB-independent reactivation by KJE alone"}]}
